Target: T1, Mdm2/p53 binding (GST-Mdm2 / His-p53) (Homo sapiens, UniProt Q00987, L33E)
T1 construct: Mdm2 partial protein having Mdm2 amino acids at positions 25 to 108
Experiment: Mdm2/p53 binding assay (HTRF, His-p53 and GST-Mdm2)
Conditions: His-p53 (aa 1-132) and GST-Mdm2 (aa 25-108, L33E) 6.25 nM each; 25°C, 1 hour; values given as ranges
Experimental: A protein dilution containing 6.25 nM each of His-p53 (fusion protein of a p53 partial protein having p53 amino acids at positions 1 to 132, with a histidine protein) and GST-Mdm2 (fusion protein of an Mdm2 partial protein having Mdm2 amino acids at positions 25 to 108 with leucine residue 33 substituted by glutamic acid, with glutathione transferase) proteins was prepared using a protein buffer solution (20 mM HEPES pH 7.4, 150 mM NaCl, 0.1% BSA). This protein dilution was added in an amount of 8 μl/well to a 384-well plate (384-well low volume NBC, Corning Inc., catalog No: 3676).
Next, a test compound was diluted with DMSO to produce a protein buffer solution containing 10% dilution, and this buffer solution was added in an amount of 4 μl/well to the plate.
Subsequently, a solution containing an XL665-labeled anti-His antibody (HTRF monoclonal anti-6HIS antibody labeled with XL665 (catalog No: 61HISXLB), Schering/Cisbio Bioassays) and a europium (Eu)-labeled anti-GST antibody (HTRF monoclonal anti-GST antibody labeled with europium cryptate, Schering/Cisbio Bioassays, catalog No: 61GSTKLB) at concentrations of 2.5 μg/ml and 0.325 μg/ml, respectively, was prepared using an antibody diluting buffer solution (20 mM HEPES pH 7.4, 150 mM NaCl, 0.1% BSA, 0.5 M KF). These dilutions were added in an amount of 8 μl/well (total reaction solution volume: 20 μl/well). Then the plate was incubated at 25° ° C. for 1 hour.
Time-resolved fluorescence at 620 and 665 nm was measured at an excitation wavelength of 320 nm using a plate reader (ARVOsx, PerkinElmer Co., Ltd. or PHERAstar, BMG LABTECH). Ratio (R) was calculated using the measured values (RFU 620 nm and RFU 665 nm) according to the following formula: […]
BI: measured value at 665 nm of reaction solution (only each buffer solution) nonsupplemented with each protein, the compound, and the antibodies
A and D: each measured value at 665 nm and 620 nm of reaction solution supplemented with only Eu-labeled anti-GST antibody solution
The R value calculated from the well supplemented with His-p53, GST-Mdm2, the test compound, and each antibody was defined as R (sample). The R value calculated from the well supplemented with His-p53, GST-Mdm2, and each antibody but without the test compound was defined as R (control). The R value calculated from the well supplemented with GST-Mdm2 the test compound, and each antibody but without His-p53 was defined as R (background). T/C was calculated from the formula shown below. An IC50 value for Mdm2/p53 binding was calculated by sigmoid fitting.

T1 sequence (Q00987 25-108 L33E): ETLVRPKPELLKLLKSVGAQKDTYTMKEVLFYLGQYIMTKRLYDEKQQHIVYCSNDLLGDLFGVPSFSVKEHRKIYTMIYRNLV

SMILES | IC50 [nM]
CC1(C)CCC2(CC1)N[C@@H](C(=O)N[C@H]1CC[C@](O)(CO)CC1)[C@H](c1ccnc(Cl)c1F)[C@]21C(=O)Nc2cc(Cl)ccc21 [Example 39] | 50 to 100
CC1(C)CCC2(CC1)N[C@@H](C(=O)N[C@H]1CC[C@H](c3noc(=O)[nH]3)CC1)[C@H](c1ccnc(Cl)c1F)[C@]21C(=O)Nc2cc(Cl)ccc21 [Example 41, (3′R, 4′S,5′R)-6″-chloro-4′-(2-chloro-3-fluoropyridin-4-yl)-4,4-dimethyl-2″-oxo-N-[trans-4-(5-oxo-4,5-dihydro-1,2,4-oxadiazol-3-yl)cyclohexyl]-1″,2″-dihydrodispiro[cyclohexane-1,2′-pyrrolidine-3′,3″-indole]-5′-carboxamide] | 1 to 50
CO[C@H]1C[C@@H](NC(=O)[C@@H]2NC3(CCC(C)(C)CC3)[C@@]3(C(=O)Nc4cc(Cl)ccc43)[C@H]2c2cccc(Cl)c2F)CO[C@@H]1CO [Example 43, (3′R, 4′S,5′R)-6″-chloro-4′-(3-chloro-2-fluorophenyl)-N-[(3R,5S,6R)-6-(hydroxymethyl)-5-methoxytetrahydro-2H-pyran-3-yl]-4,4-dimethyl-2″-oxo-1″,2″-dihydrodispiro[cyclohexane-1,2′-pyrrolidine-3′,3″-indole]-5′-carboxamide] | 100 to 500
CC(=O)N(CCO)C[C@@H]1CC[C@@H](NC(=O)[C@@H]2NC3(CCC(C)(C)CC3)[C@@]3(C(=O)Nc4cc(Cl)ccc43)[C@H]2c2ccnc(Cl)c2F)CO1 [Example 44] | 1 to 50
CO[C@H]1C[C@@H](NC(=O)[C@@H]2NC3(CCC(C)(C)CC3)[C@@]3(C(=O)Nc4cc(Cl)ccc43)[C@H]2c2ccnc(Cl)c2F)CO[C@@H]1CO [Example 45, (3′R, 4′S,5′R)-6″-chloro-4′-(2-chloro-3-fluoropyridin-4-yl)-N-[(3R,5S,6R)-6-(hydroxymethyl)-5-methoxytetrahydro-2H-pyran-3-yl]-4,4-dimethyl-2″-oxo-1″,2″-dihydrodispiro[cyclohexane-1,2′-pyrrolidine-3′,3″-indole]-5′-carboxamide] | 50 to 100
CC1(C)CCC2(CC1)N[C@@H](C(=O)N[C@@H]1CC[C@@H](c3n[nH]c(=O)o3)OC1)[C@H](c1ccnc(Cl)c1)[C@]21C(=O)Nc2cc(Cl)ccc21 [Example 56, (3′R, 4′R, 5′R)-6″-chloro-4′-(2-chloropyridin-4-yl)-4,4-dimethyl-2″-Oxo-N-[(3R,6S)-6-(5-oxo-4,5-dihydro-1,3,4-oxadiazol-2-yl)tetrahydro-2H-pyran-3-yl]-1″,2″-dihydrodispiro[cyclohexane-1,2′-pyrrolidine-3′,3″-indole]-5′-carboxamide] | 1 to 50
CO[C@H]1C[C@@H](NC(=O)[C@@H]2NC3(CCC(C)(C)CC3)[C@@]3(C(=O)Nc4cc(Cl)ccc43)[C@H]2c2ccnc(Cl)c2)CO[C@@H]1CO [Example 59, (3′R, 4′R, 5′B)-6″-chloro-4′-(2-chloropyridin-4-yl)-N-[(3R,5S,6R)-6-(hydroxymethyl)-5-methoxytetrahydro-2H-pyran-3-yl]-4,4-dimethyl-2″-oxo-1″,2″-dihydrodispiro[cyclohexane-1,2′-pyrrolidine-3′,3″-indole]-5′-carboxamide] | 50 to 100
COC[C@]1(O)CC[C@@H](NC(=O)[C@@H]2NC3(CCC(C)(C)CC3)[C@@]3(C(=O)Nc4cc(Cl)ccc43)[C@H]2c2ccnc(Cl)c2F)CC1 [Example 61, (3′R, 4′S,5′R)-6″-chloro-4′-(2-chloro-3-fluoropyridin-4-yl)-N-[cis-4-hydroxy-4-(methoxymethyl)cyclohexyl]-4,4-dimethyl-2″-oxo-1″,2″-dihydrodispiro[cyclohexane-1,2′-pyrrolidine-3′,3″-indole]-5′-carboxamide] | 50 to 100

Other lines, results leading:

IC50 [nM] | SMILES
1 to 50 | CC1(C)CCC2(CC1)N[C@@H](C(=O)N[C@H]1CO[C@H](CO)[C@@H](O)C1)[C@H](c1cccc(Cl)c1F)[C@]21C(=O)Nc2cc(Cl)ccc21 [Example 42, (3′R, 4′S,5′R)-6″-chloro-4′-(3-chloro-2-fluorophenyl)-N-[(3R,5S,6R)-5-hydroxy-6-(hydroxymethyl)tetrahydro-2H-pyran-3-yl]-4,4-dimethyl-2″-oxo-1″,2″-dihydrodispiro[cyclohexane-1,2′-pyrrolidine-3′,3″-indole]-5′-carboxamide]
1 to 50 | CC1(C)CCC2(CC1)N[C@@H](C(=O)N[C@@H]1CC[C@@H](C(C)(C)O)OC1)[C@H](c1cccc(Cl)c1F)[C@]21C(=O)Nc2cc(Cl)ccc21 [Example 46, (3′R, 4′S,5′R)-6″-chloro-4′-(3-chloro-2-fluorophenyl)-N-[(3R,6S)-6-(1-hydroxy-1-methylethyl)tetrahydro-2H-pyran-3-yl]-4,4-dimethyl-2′-oxo-1″; 2″-dihydrodispiro[cyclohexane-1,2′-pyrrolidine-3′,3″-indole]-5′-carboxamide]
1 to 50 | CC1(C)CCC2(CC1)N[C@@H](C(=O)N[C@H]1CC[C@H](c3noc(=O)[nH]3)CC1)[C@H](c1cccc(Cl)c1F)[C@]21C(=O)Nc2cc(Cl)ccc21 [Example 48, (3′S,4′S,5′R)-6′-chloro-4′-(3-chloro-2-fluorophenyl)-4,4-dimethyl-2″-oxo-N-[trans-4-(5-oxo-4,5-dihydro-1,2,4-oxadiazol-3-yl)cyclohexyl]-1″,2″-dihydrodispiro[cyclohexane-1,2′-pyrrolidine-3′,3″-indole]-5′-carboxamide]
50 to 100 | CC1(C)CCC2(CC1)N[C@@H](C(=O)N[C@@H]1CC[C@@H](c3nnco3)OC1)[C@H](c1ccnc(Cl)c1F)[C@]21C(=O)Nc2nc(Cl)ccc21 [Example 50, (3′R, 4′S,5′R)-6″-chloro-4′-(2-chloro-3-fluoropyridin-4-yl)-4,4-dimethyl-N-[(3R,6S)-6-(1,3,4-oxadiazol-2-yl)tetrahydro-2H-pyran-3-yl]-2″-oxo-1″,2″-dihydrodispiro[cyclohexane-1,2′-pyrrolidine-3′,3″-pyrrolo[2,3-b]pyridine]-3′-carboxamide]
50 to 100 | CC1(C)CCC2(CC1)N[C@@H](C(=O)N[C@@H]1CC[C@@H](c3nnco3)OC1)[C@H](c1cccc(Cl)c1F)[C@]21C(=O)Nc2nc(Cl)ccc21 [Example 52, (3′R, 4′S,5′R)-6″-chloro-4′-(3-chloro-2-fluorophenyl)-4,4-dimethyl-N-[(3R,6S)-6-(1,3,4-oxadiazol-2-yl)tetrahydro-2H-pyran-3-yl]-2″-oxo-1″,2″-dihydrodispiro[cyclohexane-1,2′-pyrrolidine-3′,3″-pyrrolo[2,3-b]pyridine]-5′-carboxamide]
1 to 50 | CC1(C)CCC2(CC1)N[C@@H](C(=O)N[C@@H]1CC[C@@H](c3n[nH]c(=O)o3)OC1)[C@H](c1cccc(Cl)c1F)[C@]21C(=O)Nc2nc(Cl)ccc21 [Example 55, (3′R, 4′S,5′R)-6″-chloro-4′-(3-chloro-2-fluorophenyl)-4,4-dimethyl-2″-oxo-N-[(3R,6S)-6-(5-oxo-4,5-dihydro-1,3,4-oxadiazol-2-yl)tetrahydro-2H-pyran-3-yl]-1″,2″-dihydrodispiro[cyclohexane-1,2′-pyrrolidine-3′,3″-pyrrolo[2,3-b]pyridine]-5′-carboxamide]
50 to 100 | CO[C@H]1C[C@@H](NC(=O)[C@@H]2NC3(CCC(C)(C)CC3)[C@@]3(C(=O)Nc4nc(Cl)ccc43)[C@H]2c2cccc(Cl)c2F)CO[C@@H]1CO [Example 58, (3′R, 4′S,5′R)-6″-chloro-4′-(3-chloro-2-fluorophenyl)-N-[(3R,5S,6R)-6-(hydroxymethyl)-5-methoxytetrahydro-2H-pyran-3-yl]-4,4-dimethyl-2″-oxo-1″,2″-dihydrodispiro[cyclohexane-1,2′-pyrrolidine-3′,3″-pyrrolo[2,3-b]pyridine]-5′-carboxamide]
50 to 100 | CC1(C)CCC2(CC1)N[C@@H](C(=O)N[C@@H]1CC[C@@H](c3ncon3)OC1)[C@H](c1cccc(Cl)c1F)[C@]21C(=O)Nc2nc(Cl)ccc21 [Example 62, (3′R, 4′S,5′R)-6″-chloro-4′-(3-chloro-2-fluorophenyl)-4,4-dimethyl-N-[(3R,6S)-6-(1,2,4-oxadiazol-3-yl)tetrahydro-2H-pyran-3-yl]-2″-oxo-1″,2″-dihydrodispiro[cyclohexane-1,2′-pyrrolidine-3′,3″-pyrrolo[2,3-b]pyridine]-5′-carboxamide]

Source: patent publication US12545685B2 (Daiichi Sankyo Company, Limited, priority 2011, dated 2026)
